Laboratory results published in PubChem BioAssay AID2060898 (Molecular Pharmacology Branch, DTP, NCI, 2025).

Test system: 616215-338-R-J1-PDC complex spheroid viability
Assay: Anticancer human tumor 616215-338-R-J1-PDC patient-derived colon adenocarcinoma cell line growth inhibition [RAS]
Settings: for IC50: curve of first compound; for viability, T/C: stronger effect = lower value
Outline: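 Agents were tested in combination matrices in half-log decrements from a top concentration at or near clinical Cmax (10 microM if undetermined). Targets were multi-cell spheroids of tumour lines plus HUVEC and MSC stromal cells.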

[1] = second compound 0.000949 µM, first compound 0.0316 µM
[2] = second compound 0.000949 µM, first compound 0.1 µM
[3] = second compound 0.000949 µM, first compound 0.316 µM
[4] = second compound 0.000949 µM, first compound 1 µM
[5] = second compound 0.003 µM, first compound 0.0316 µM
[6] = second compound 0.003 µM, first compound 0.1 µM
[7] = second compound 0.003 µM, first compound 0.316 µM
[8] = second compound 0.003 µM, first compound 1 µM
[9] = second compound 0.00949 µM, first compound 0.0316 µM
[10] = second compound 0.00949 µM, first compound 0.1 µM
[11] = second compound 0.00949 µM, first compound 0.316 µM
[12] = second compound 0.00949 µM, first compound 1 µM
[13] = second compound 0.03 µM, first compound 0.0316 µM
[14] = second compound 0.03 µM, first compound 0.1 µM
[15] = second compound 0.03 µM, first compound 0.316 µM
[16] = second compound 0.03 µM, first compound 1 µM
[17] = second compound 0.0949 µM, first compound 0.0316 µM
[18] = second compound 0.0949 µM, first compound 0.1 µM
[19] = second compound 0.0949 µM, first compound 0.316 µM
[20] = second compound 0.0949 µM, first compound 1 µM
[21] = second compound 0.3 µM, first compound 0.0316 µM
[22] = second compound 0.3 µM, first compound 0.1 µM
[23] = second compound 0.3 µM, first compound 0.316 µM
[24] = second compound 0.3 µM, first compound 1 µM
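Note: spheroids exposed to agents for seven days before viability readout.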
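Throughout, for viability, T/C: 100% = DMSO vehicle control viability.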

Which IC50 (second compound 0.000949 µM) does the source give for `CC1(O)CCCC1n1c(=O)c(C(F)F)cc2cnc(NC3CCN(S(C)(=O)=O)CC3)nc21` (centres undefined) + CCn1c(-c2cccnc2C(C)OC)c2c3cc(ccc31)N1CCOC(CC(NC(=O)C(C(C)C)N(C)C(=O)C3(F)CCN(C(=O)C#CC(C)(C)N(C)C)CC3)C(=O)N3CCCC(N3)C(=O)OCC(C)(C)C2)C1 here?
The IC50 was 1180 nM.

What about the IC50 (second compound 0.003 µM) of the same molecule?
Its IC50 is 1290 nM.

What about the IC50 (second compound 0.00949 µM) of the same molecule?
Its IC50 is 1340 nM.

What about the IC50 (second compound 0.03 µM) of the same molecule?
The IC50 was 1160 nM.

And the IC50 (second compound 0.0949 µM)?
Its IC50 is 1180 nM.

And the IC50 (second compound 0.3 µM)?
The IC50 was 830 nM.

What about the viability, T/C [1] of the same molecule?
The viability, T/C was 112%.

And the viability, T/C [2]?
The viability, T/C was 105%.

And the viability, T/C [3]?
The viability, T/C was 57.5%.

And the viability, T/C [4]?
Its viability, T/C is 53.3%.

And the viability, T/C (second compound 0.000949 µM, first compound 3.16 µM)?
The viability, T/C was 48.3%.

What about the viability, T/C (second compound 0.000949 µM, first compound 10 µM) of the same molecule?
Its viability, T/C is 3.43%.

And the viability, T/C [5]?
Its viability, T/C is 114%.

What about the viability, T/C [6] of the same molecule?
Its viability, T/C is 109%.

And the viability, T/C [7]?
Its viability, T/C is 58.3%.

And the viability, T/C [8]?
Its viability, T/C is 56.5%.

And the viability, T/C (second compound 0.003 µM, first compound 3.16 µM)?
The viability, T/C was 49.9%.

And the viability, T/C (second compound 0.003 µM, first compound 10 µM)?
Its viability, T/C is 3.17%.

And the viability, T/C [9]?
Its viability, T/C is 109%.

And the viability, T/C [10]?
Its viability, T/C is 112%.

What about the viability, T/C [11] of the same molecule?
The viability, T/C was 61.9%.

What about the viability, T/C [12] of the same molecule?
The viability, T/C was 55.3%.

And the viability, T/C (second compound 0.00949 µM, first compound 3.16 µM)?
Its viability, T/C is 50.3%.

And the viability, T/C (second compound 0.00949 µM, first compound 10 µM)?
Its viability, T/C is 3.71%.

And the viability, T/C [13]?
The viability, T/C was 118%.

And the viability, T/C [14]?
Its viability, T/C is 112%.

What about the viability, T/C [15] of the same molecule?
Its viability, T/C is 55.1%.

What about the viability, T/C [16] of the same molecule?
Its viability, T/C is 50%.

And the viability, T/C (second compound 0.03 µM, first compound 3.16 µM)?
The viability, T/C was 46%.

What about the viability, T/C (second compound 0.03 µM, first compound 10 µM) of the same molecule?
Its viability, T/C is 4.07%.

And the viability, T/C [17]?
The viability, T/C was 108%.

And the viability, T/C [18]?
The viability, T/C was 102%.

And the viability, T/C [19]?
Its viability, T/C is 60.8%.

And the viability, T/C [20]?
Its viability, T/C is 51%.

And the viability, T/C (second compound 0.0949 µM, first compound 3.16 µM)?
The viability, T/C was 49.8%.

And the viability, T/C (second compound 0.0949 µM, first compound 10 µM)?
The viability, T/C was 4.02%.

What about the viability, T/C [21] of the same molecule?
Its viability, T/C is 95.5%.

What about the viability, T/C [22] of the same molecule?
Its viability, T/C is 74.3%.

And the viability, T/C [23]?
Its viability, T/C is 44.1%.

What about the viability, T/C [24] of the same molecule?
Its viability, T/C is 52.6%.

What about the viability, T/C (second compound 0.3 µM, first compound 3.16 µM) of the same molecule?
The viability, T/C was 52.4%.

And the viability, T/C (second compound 0.3 µM, first compound 10 µM)?
The viability, T/C was 3.81%.

`CCN1CCN(Cc2ccc(Nc3ncc(F)c(-c4cc(F)c5nc(C)n(C(C)C)c5c4)n3)nc2)CC1` + CCn1c(-c2cccnc2C(C)OC)c2c3cc(ccc31)N1CCOC(CC(NC(=O)C(C(C)C)N(C)C(=O)C3(F)CCN(C(=O)C#CC(C)(C)N(C)C)CC3)C(=O)N3CCCC(N3)C(=O)OCC(C)(C)C2)C1 was tested. Which IC50 (second compound 0.000949 µM) did it give?
The IC50 was greater than 1000 nM.

And the IC50 (second compound 0.003 µM)?
Its IC50 is greater than 1000 nM.

What about the IC50 (second compound 0.00949 µM) of the same molecule?
The IC50 was greater than 1000 nM.

What about the IC50 (second compound 0.03 µM) of the same molecule?
The IC50 was greater than 1000 nM.

What about the IC50 (second compound 0.0949 µM) of the same molecule?
The IC50 was greater than 1000 nM.

What about the IC50 (second compound 0.3 µM) of the same molecule?
Its IC50 is 930 nM.

What about the viability, T/C (second compound 0.000949 µM, first compound 0.00316 µM) of the same molecule?
Its viability, T/C is 104%.

And the viability, T/C (second compound 0.000949 µM, first compound 0.01 µM)?
Its viability, T/C is 103%.

And the viability, T/C [1]?
Its viability, T/C is 104%.

What about the viability, T/C [2] of the same molecule?
Its viability, T/C is 122%.

And the viability, T/C [3]?
Its viability, T/C is 144%.

What about the viability, T/C [4] of the same molecule?
The viability, T/C was 66.5%.

And the viability, T/C (second compound 0.003 µM, first compound 0.00316 µM)?
Its viability, T/C is 102%.

And the viability, T/C (second compound 0.003 µM, first compound 0.01 µM)?
Its viability, T/C is 103%.

What about the viability, T/C [5] of the same molecule?
The viability, T/C was 105%.

And the viability, T/C [6]?
The viability, T/C was 121%.

What about the viability, T/C [7] of the same molecule?
The viability, T/C was 141%.

And the viability, T/C [8]?
The viability, T/C was 59.2%.

And the viability, T/C (second compound 0.00949 µM, first compound 0.00316 µM)?
Its viability, T/C is 102%.

What about the viability, T/C (second compound 0.00949 µM, first compound 0.01 µM) of the same molecule?
The viability, T/C was 104%.

What about the viability, T/C [9] of the same molecule?
Its viability, T/C is 108%.

What about the viability, T/C [10] of the same molecule?
The viability, T/C was 128%.

And the viability, T/C [11]?
Its viability, T/C is 134%.

And the viability, T/C [12]?
Its viability, T/C is 56.8%.

What about the viability, T/C (second compound 0.03 µM, first compound 0.00316 µM) of the same molecule?
Its viability, T/C is 110%.

And the viability, T/C (second compound 0.03 µM, first compound 0.01 µM)?
The viability, T/C was 105%.

What about the viability, T/C [13] of the same molecule?
Its viability, T/C is 118%.

And the viability, T/C [14]?
The viability, T/C was 122%.

What about the viability, T/C [15] of the same molecule?
The viability, T/C was 143%.

And the viability, T/C [16]?
Its viability, T/C is 67.1%.

What about the viability, T/C (second compound 0.0949 µM, first compound 0.00316 µM) of the same molecule?
Its viability, T/C is 109%.

And the viability, T/C (second compound 0.0949 µM, first compound 0.01 µM)?
The viability, T/C was 113%.

And the viability, T/C [17]?
Its viability, T/C is 116%.

And the viability, T/C [18]?
The viability, T/C was 121%.

What about the viability, T/C [19] of the same molecule?
The viability, T/C was 129%.

What about the viability, T/C [20] of the same molecule?
The viability, T/C was 50%.

What about the viability, T/C (second compound 0.3 µM, first compound 0.00316 µM) of the same molecule?
Its viability, T/C is 117%.

And the viability, T/C (second compound 0.3 µM, first compound 0.01 µM)?
The viability, T/C was 104%.

What about the viability, T/C [21] of the same molecule?
Its viability, T/C is 113%.

What about the viability, T/C [22] of the same molecule?
The viability, T/C was 116%.

What about the viability, T/C [23] of the same molecule?
Its viability, T/C is 108%.

And the viability, T/C [24]?
Its viability, T/C is 46%.
